Laboratory results from patent US12466804B2 (BRISTOL-MYERS SQUIBB COMPANY, priority 2019, dated 2025).

Columns and labels:
IPF patients = settings: 26-week clinical trial in IPF patients (Palmer et al.); cited from earlier work
human LPA1 = target: T1, human LPA1 (Homo sapiens, UniProt Q92633); test: LPA1 functional antagonist assay (LPA-induced calcium flux); format: cell-based; settings: CHO cells overexpressing human LPA1; calcium flux induced by 10 nM LPA; read-out: hLPA1 IC50
T1 construct: expressed in transfected cells; host or cells: Chinese hamster ovary (CHO) cells
Description: The effectiveness of compounds of the present invention as LPA1 inhibitors can be determined in an LPA1 functional antagonist assay as follows:
The cells were then equilibrated to room temperature for 30 minutes before the assay. […] IC50 values were determined by fitting data to a 4-parameter logistic equation (GraphPad Prism, San Diego CA).

nerve-injured mice = settings: pretreatment, nerve-injured mice (Inoue et al.); cited from earlier work
UUO mice = settings: cited from earlier work
[1] = system: human foetal lung fibroblasts; settings: Tager et al.; cited from earlier work
[2] = system: pancreatic cancer cell lines; settings: cited from earlier work
[3] = system: mouse epithelial renal cell line, MCT; settings: MCT cells, co-treatment with LPA; cited from earlier work

T1 sequence (Q92633 whole entry): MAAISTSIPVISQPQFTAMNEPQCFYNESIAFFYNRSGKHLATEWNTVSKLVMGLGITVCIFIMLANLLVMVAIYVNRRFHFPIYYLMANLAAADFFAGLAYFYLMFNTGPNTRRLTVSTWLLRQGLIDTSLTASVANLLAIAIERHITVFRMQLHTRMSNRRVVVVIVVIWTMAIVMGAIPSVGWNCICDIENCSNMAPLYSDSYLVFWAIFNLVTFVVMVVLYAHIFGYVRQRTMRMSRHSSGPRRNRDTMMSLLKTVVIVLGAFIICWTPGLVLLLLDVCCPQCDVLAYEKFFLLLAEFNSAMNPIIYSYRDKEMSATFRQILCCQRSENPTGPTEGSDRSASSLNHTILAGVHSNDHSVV

Which “rate of FVC (forced vital capacity) decline” value (IPF patients) does the source give for `Cc1noc(-c2ccc(-c3ccc(C4(C(=O)O)CC4)cc3)cc2)c1NC(=O)O[C@H](C)c1ccccc1` [BMS-986020] here?
The value was “significantly reduce”.

With `Cc1nc(-c2onc(C)c2COC(=O)N(C)C2CCCC2)ccc1OCC12CCC(C(=O)O)(C1)C2` [Example 58, 4-(((6-(4-(((cyclopentyl(methyl)carbamoyl)oxy)methyl)-3-methylisoxazol-5-yl)-2-methylpyridin-3-yl)oxy)methyl)bicyclo[2.1.1]hexane-1-carboxylic acid] as the compound, how does the IC50 (human LPA1) read?
The IC50 was 22 nM.

For `C[C@@H](N)[C@H]1CC[C@H](C(=O)Nc2ccncc2)CC1` [Example Y-27632], which allodynia and hyperalgesia (nerve-injured mice) is on record?
The allodynia and hyperalgesia was “completely abolished”.

Which “development of renal fibrosis” value (UUO mice) does the source give for `Cc1noc(-c2ccc(CSCCC(=O)O)cc2)c1NC(=O)OC(C)c1ccccc1Cl` (centres unmarked) [Ki16425] here?
The value was “closely resembled the profile of LPA1 (−/−) mice”.

What about the “chemotaxis of human foetal lung fibroblasts induced by BAL from IPF patients” value [1] of the same compound?
The value was “blocked”.

What about the “LPA-induced and ascites-induced invasion activity” value ([2]; highly peritoneal metastatic pancreatic cancer cell line) of the same compound?
The value was “blocked”.

What about the “in vitro migration in response to LPA and peritoneal fluid (ascites) from pancreatic cancer patients” value ([2]; pancreatic cancer cell lines (Yamada et al.)) of the same compound?
The value was “effectively blocked”.

And the “LPA-induced expression of the profibrotic cytokine CTGF” value [3]?
The value was “almost completely suppressed”.
